In patent US20040229246A1, “Diagnostic markers for therapeutic treatment” (Can-Fite Biopharam Ltd., priority 2002, published 2004):

Legend:
[1] = test system: adjuvant induced arthritis; assay: Adjuvant induced arthritis (AIA) in rats, clinical and histological score; type: in vivo
Description: AIA in Rats: Female Lewis rats, aged 8-12 weeks, obtained from Harlan Laboratories (Jerusalem, Israel), were injected subcutaneously (s.c.) at the tail base with 100 μl of suspension composed of incomplete Freund's adjuvant (IFA) with 10 mg/ml heat killed Mycobacterium tuberculosis, (Mt) H37Ra, (Difco, Detroit, USA). To assess the clinical disease activity score, the animals were inspected every second day for clinical arthritis. The scoring system ranged from 0-4 of each limb: 0-no arthritis; 1-redness or swelling of one toe/finger joint; 2-redness and swelling of more than one toe/finger joints; 3-the ankle and tarsal-metatarsal joints involvement; 4-entire paw redness or swelling. The arthritic score was calculated by adding the four individual legs' score to a maximum of 16. For histological scoring, Animals were sacrificed, the legs were removed up to the knee level, fixed in 10% formaldehyde, decalcified, dehydrated, paraffin-embedded, cut into 4 μm sections and stained by Hematoxylin-Eosin. The assessment of all pathologic findings were performed blind using semi-quantitative grading scales of 0 to 4 for the following parameters: a) extent of inflammatory cells' infiltration to the joint tissues; b) synovial lining cell hyperplasia; c) pannus formation; and d) joint cartilage layers destruction. […] TNF-α was measured in synovia, DLN and spleen tissues derived from control and CF101 treated rats. […] Protein concentrations were determined using the Bio-Rad protein assay dye reagent. […] Bands were recorded using BCIP/NBT color development kit (Promega, Madison, Wis., USA). Densitometry of protein expression was normalized against β-actin and expressed as % of control. […]

[2] = test system: A3AR, GSK-3β, cyclin D1, c-myc; assay: Western blot of regulatory proteins in HCT-116 tumor lesions excised from mice; type: in vivo
Description: (§1) To detect the level of expression of the A3AR proteins Western blot analysis was performed. Cells were incubated in the presence and absence of IB-MECA (10 nM), MRS1523 (10 nM), Forskolin (50 nM), 8 Br cAMP (100 μM), Cycloheximide 20 μg/ml or MG 132 (20 nM) for different time periods at 37° C. Cells were then rinsed with ice-cold PBS and transferred to ice-cold lysis buffer (TNN buffer, 50 mM Tris buffer pH=7.5, 150 mM NaCl, NP 40). In the experiment examining the effect of trypsin on A3AR expression, cells were incubated with 0.5 ml of 0.25% trypsin for 5 minutes. The trypsinized cells were washed again with ice-cold PBS, harvested by centrifugation and subjected to lysis in TNN buffer. Cell debris was removed by centrifugation for 10 minutes, at 7500 xg. The supernatant was utilized for Western Blot analysis. Protein concentrations were determined using the Bio-Rad protein assay dye reagent. Equal amounts of the sample (50 μg) were separated by SDS-PAGE, using 12% polyacrylamide gels. The resolved proteins were then electroblotted onto nitrocellulose membranes (Schleicher & Schuell, Keene, NH, USA). Membranes were blocked with 1% bovine serum albumin and incubated with the desired primary antibody (dilution 1:1000) for 24 hours at 4° C. Blots were then washed and incubated with a secondary antibody for 1 hour at room temperature. Bands were recorded using BCIP/NBT color development kit (Promega, Madison, W1, USA). Data presented in the different figures are representative of at least three different experiments.
Colon Carcinoma: Nude/BalbC male, 10-week-old mice were used. HCT-116 Human colon carcinoma cells (1.2×10^6 cells in 100 μL PBS) were inoculated subcutaneously to the flank of the mice. Treatment was initiated when tumors reached a size of ˜150 mm^3. Each group contained 10 mice, the control group treated with vehicle only, while the test group was administered daily orally with IB-MECA (10 μg/kg).
After 32 days the mice were sacrificed, tumor lesions were excise and protein was extracted for measurements as described above. Tumor size was evaluated by measuring with a caliber width (W) and length (L) and calculated according to the above formula.

[3] = test system: A3AR, NF-κB, c-myc, cyclin D1; assay: Immunoblot analysis of proteins extracted from prostate carcinoma (PC-3) cells; type: cell-based
Description: as §1
The effect of IB-MECA on key proteins downstream to A3AR activation in prostate carcinoma cells was also examined in a manner similar to that performed with melanoma cells (see above).

## CNC(=O)[C@H]1O[C@@H](n2cnc3c(NCc4cccc(I)c4)ncnc32)[C@H](O)[C@@H]1O [IB-MECA, 1-deoxy-1-[6[[(3-iodophenyl)methyl]amino]-9H-purine-9-yl]-N-methyl-β-D-ribofura-nuronaminde]
[1]; 10 μg/kg orally twice daily, versus vehicle
  clinical score (inflammatory response): anti-inflammatory response
[1]; day 28, versus control
  histological score: anti-inflammatory activity
[2]
  A3AR level: down-regulation
  GSK-3β expression level: up-regulation
  c-myc level: decrease
  cyclin D1 level: decrease
[3]
  A3AR level: down-regulation
  NF-κB level: down-regulation
  c-myc level: down-regulation
  cyclin D1 level: down-regulation
